Results filed as inconclusive are left out. Activity calls are given as the source filed them. No rule for the calls is given here.
System: Chlamydomonas reinhardtii, Nile Red lipid fluorescence, 72 h
Assay: compounds raising TAG storage in Chlamydomonas – qHTS, Chlamydomonas reinhardtii, dose response (AID 1159536)

| SMILES | EC50 |
| --- | --- |
| COc1ccc(CN2CCN(Cc3ccc([N+](=O)[O-])cc3)CC2)cc1OC | 2.49 µM |
| Oc1ccc(CN2CCN(c3cccc(Cl)c3)CC2)cc1 | 0.0276 µM |
| Cc1ccc(C(=O)Nc2ccc3oc(-c4ccncc4)nc3c2)cc1C | 1.6 µM |
| CCC(C)c1ccc(OCCCN2CCN(C)CC2)cc1 (stereo unspecified) | 0.902 µM |
| Cc1ccc(C)c(N2CCN(Cc3ccc([N+](=O)[O-])cc3)CC2)c1 | 1.29 µM |
| COc1cccc(N2CCN(Cc3ccc([N+](=O)[O-])cc3)CC2)c1 | 0.667 µM |
| Cc1cc(C)c(S(=O)(=O)N2CCN(C)CC2)cc1Br | 15.8 µM |
| Oc1ccc(Br)cc1CN1CCC(N2CCOCC2)CC1 | 22.8 µM |
| CC(C)(C)c1csc(NC(=O)c2ccc(N3CCOCC3)c([N+](=O)[O-])c2)n1 | 2.66 µM |
| COc1cccc(NC2=C(N(C)C)C(=O)c3ccccc3C2=O)c1 | 1.87 µM (inactive) |
| COc1ccc(CN(C)C2CCCCC2)cc1 | 2.79 µM |
| OC(COc1ccccc1Br)CN1CCCCC1 (stereo unspecified) | 7.57 µM |
| Fc1ccc(N2CCN(Cc3ccsc3)CC2)cc1 | 8.16 µM |
| O=C(Nc1ccc([N+](=O)[O-])cc1)c1cccc(Cl)c1Cl | 2.35 µM (inactive) |
| COCCNS(=O)(=O)c1cc(Cl)ccc1OC | 2.98 µM (inactive) |
| Oc1ccc(CN2CCN(c3ccccc3Cl)CC2)cc1 | 0.632 µM |
| O=C(CN1CCCCC1)NC12CC3CC(CC(C3)C1)C2 | 3.47 µM |
| Cc1ccc(OCCCCN2CCOCC2)cc1 | 4.2 µM |
| CC(C)(C)c1ccc(OCC(O)CN2CCN(CCO)CC2)cc1 (stereo unspecified) | 1.29 µM |
| CCc1ccc(CN2CCN(CCO)CC2)cc1 | 7.63 µM |
| CCC(CC)C(=O)Nc1ccc(C(=O)Nc2nccs2)cc1 | 1.83 µM (inactive) |
| Cc1cc(Br)ccc1OCCCCN1CCN(C)CC1 | 3.38 µM |
| COc1ccc(CNC2CCSC2)cc1 (stereo unspecified) | 0.314 µM |
| C=CCc1cc(Cl)ccc1OCCN1CCN(C)CC1 | 14.1 µM |
| Cc1cccc(OCCCCN2CCOCC2)c1 | 2.69 µM |
| C(=C\c1ccccc1)/CN1CCN(C2C3CC4CC(C3)CC2C4)CC1 (stereo unspecified) | 3.99 µM |

| SMILES | EC50 |
| --- | --- |
| CCOc1ccc(CN2CCN(c3ccccc3OC)CC2)cc1 | 1.32 µM |
| Fc1ccccc1N1CCN(CC2CCCCC2)CC1 | 10.5 µM |
| CN1CCN(Cc2cccc(Oc3ccccc3)c2)CC1 | 9.98 µM |
| CN(CC(O)COc1ccc(Br)cc1)C1CCCCC1 (stereo unspecified) | 6.83 µM |
| Cc1cccc(N2CCN(C(=O)C3CCN(CC4CCCCC4)CC3)CC2)c1C | 4.62 µM |
| COc1ccc(C(=O)c2ccc(N3CCN(C)CC3)c([N+](=O)[O-])c2)cc1 | 1.27 µM (inactive) |
| O=C(c1ccc([N+](=O)[O-])cc1)N1CCN(CC2CC3C=CC2C3)CC1 (stereo unspecified) | 6.07 µM |
| Cc1ccc(S(=O)(=O)n2cccn2)cc1 | 12.9 µM (inactive) |
| O=C(Nc1ccccc1C(=O)Nc1ccccc1Cl)c1ccncc1 | 9.55 µM |
| CN1CCN(CC#CC=C(c2ccccc2)c2ccccc2)CC1 | 2.57 µM (inactive) |
| CCN1CCN(Cc2ccc(N(CC)CC)cc2)CC1 | 0.498 µM |
| CCN(CC(O)COc1ccc(Br)cc1)C1CCCCC1 (stereo unspecified) | 10.2 µM |
| Cc1ccc(C(C)C)cc1OCCCCN1CCOCC1 | 4.01 µM |
| CCN(CC)CC(=O)Nc1ccc(Br)cc1 | 10.6 µM |
| C1=CC2CC1CC2CN1CCN(Cc2ccccc2)CC1 (stereo unspecified) | 6.19 µM |
| CCN(CC)c1cc(C)nc(N)n1 | 2.53 µM (inactive) |
| CCN1CCN(C2CCC(C)CC2)CC1 (stereo unspecified) | 9.97 µM |
| Cc1ccc(CN2CCN(CCO)CC2)cc1 | 16.1 µM |
| Cc1cccc(-c2cc(NC(=O)c3ccc([N+](=O)[O-])cc3)n[nH]2)c1 | 6.94 µM |
| COc1ccccc1N1CCN(Cc2ccc(F)cc2)CC1 | 2.84 µM |
| C(=C\c1ccccc1)/CN1CCN(C2CCc3ccccc3C2)CC1 (stereo unspecified) | 9.92 µM |
| C=CCc1cccc(C)c1OCCCN1CCN(C)CC1 | 1.97 µM |
| c1ccc(CN2CCN(C3CC4CCC3C4)CC2)cc1 (stereo unspecified) | 10.1 µM |
| c1ccc(N2CCN(Cc3ccsc3)CC2)cc1 | 0.652 µM |
| CCc1ccc(OCCOCCN2CCOCC2)cc1 | 10.1 µM |
| Cc1ccc(NC(=O)CC(C)C)c(NC(=O)CC(C)C)c1 | 7.89 µM (inactive) |

| SMILES | EC50 |
| --- | --- |
| c1ccc(CCN2CCN(c3ccccc3)CC2)cc1 | 0.157 µM |
| Cc1cc(C)c(C)c(OCCCCN2CCOCC2)c1 | 15.1 µM |
| CC(C)c1ccc(CN2CCN(C)CC2)cc1 | 3.5 µM |
| Cc1cc(OCCCCN2CCN(C)CC2)cc(C(C)C)c1 | 1.92 µM |
| CC1CCC(N2CCN(c3ccccc3)CC2)C1 (stereo unspecified) | 0.629 µM |
| CCN1CCN(C2CCC(c3ccccc3)CC2)CC1 (stereo unspecified) | 1.77 µM |
| CCCCNc1cc(C)nc(N2CCOCC2)n1 | 13.1 µM |
| Cc1cc(C(C)(C)C)ccc1OCCN1CCN(C)CC1 | 4.43 µM |
| COc1cc(C)nc(NCc2ccccc2)n1 | 1.33 µM |
| CC(=O)NC1=C(N2CCN(Cc3ccccc3)CC2)C(=O)c2ccccc2C1=O | 14.3 µM (inactive) |
| O=C(c1ccc(CN2CCc3ccccc3C2)cc1)N1CCN(c2ccccc2F)CC1 | 6.04 µM |
| CC1CCC(N2CCN(Cc3ccccc3)CC2)CC1 (stereo unspecified) | 5.57 µM |
| CC(CCc1ccc(O)cc1)NC1C2CC3CC(C2)CC1C3 (stereo unspecified) | 2.74 µM |
| CC(C(=O)NCc1ccc(Cl)cc1)N(c1ccccc1)S(C)(=O)=O (stereo unspecified) | 11.3 µM (inactive) |
| Brc1ccc(CN2CCN(c3ccccc3)CC2)cc1 | 22 µM |
| CC(CNC(=O)c1ccc(C(C)(C)C)cc1)CN(C)C (stereo unspecified) | 10.3 µM |
| C/C=C(\C)CN1CCN(C/C=C/c2ccccc2)CC1 | 1.28 µM |
| C1=CC2CC1CC2CN1CCN(c2ccccc2)CC1 (stereo unspecified) | 0.0846 µM |
| COc1cc(C)c(CN2CCN(Cc3ccc4c(c3)OCO4)CC2)cc1C | 2.04 µM |
| Nn1c(SCC(=O)NC23CC4CC(CC(C4)C2)C3)nnc1-c1ccc(Cl)cc1Cl | 7.04 µM |
| Clc1ccccc1-c1nnc(-c2ccccc2)o1 | 2.7 µM |
| CCN1CCC(N2CCN(c3ccc(Cl)cc3)CC2)CC1 | 2.59 µM |
| Cc1cc(I)ccc1S(=O)(=O)NCCCN1CCOCC1 | 1.28 µM |
| CC1CCCC(N2CCN(Cc3ccccc3)CC2)C1 (stereo unspecified) | 0.811 µM |
| Cc1cc(Br)ccc1OCCCCN1CCCC1 | 2.71 µM |
| CCOc1c(Cl)cc(C(=O)Nc2cccc([N+](=O)[O-])c2)cc1Cl | 13.4 µM (inactive) |

| SMILES | EC50 |
| --- | --- |
| OCCN1CCN(C2C3CC4CC(C3)CC2C4)CC1 (stereo unspecified) | 4.25 µM |
| Cc1ccc(C(=O)c2ccc(N3CCN(C)CC3)c([N+](=O)[O-])c2)cc1 | 2.59 µM (inactive) |
| CC(=O)N(C1=C(N(C)C)C(=O)c2ccccc2C1=O)c1ccc(Cl)c(Cl)c1 | 2.65 µM (inactive) |
| C=CCNCC(=O)NC12CC3CC(CC(C3)C1)C2 | 2.81 µM |
| Cc1ccc(OCCCCN2CCCC2)c(Br)c1 | 2.65 µM |
| COc1cc(Cl)c(S(=O)(=O)NCCCN2CCOCC2)cc1Cl | 3.61 µM |
| Cc1cccc(N2CCN(Cc3ccc([N+](=O)[O-])cc3)CC2)c1C | 10.9 µM |
| CC(C)NC(=O)c1ccccc1NC(=O)c1ccc(Cl)cc1 | 0.59 µM (inactive) |
| O=[N+]([O-])c1ccccc1S(=O)(=O)N1CCN(C2CCN(Cc3ccccc3)CC2)CC1 | 10.7 µM |
| CCOc1ccc(C(=O)NCCNC(=O)c2ccc(OCC)cc2)cc1 | 19.9 µM (inactive) |
| COc1ccc(CN(C)C2CCCCC2)cc1C | 2.69 µM |
| CC1CCCN(C2CCN(S(=O)(=O)c3ccc(F)cc3)CC2)C1 (stereo unspecified) | 13.1 µM |
| CN1CCN(CCOc2ccc(C(C)(C)c3ccccc3)cc2)CC1 | 2.37 µM (inactive) |
| Cn1c(SCC(=O)NCc2ccccc2)nnc1-c1ccc(C(C)(C)C)cc1 | 7.31 µM (inactive) |
| CC1CCCCN1S(=O)(=O)c1ccc(NC(=O)c2ccc(Cl)cc2Cl)cc1 (stereo unspecified) | 2.56 µM (inactive) |
| COc1cc(C(=O)Nc2nc3c(s2)CCCC3)cc(OC)c1OC | 0.379 µM (inactive) |
| Cc1cc(C)c(NC(=O)COc2ccccc2[N+](=O)[O-])c(C)c1 | 3.13 µM (inactive) |
| OC(COc1ccc(Br)cc1)CN1CCCCCC1 (stereo unspecified) | 10.6 µM (inactive) |
| CS(=O)(=O)N1CCN(C2C3CC4CC(C3)CC2C4)CC1 (stereo unspecified) | 4.68 µM |
| CC(=O)Nc1ccc(S(=O)(=O)Nc2cc([N+](=O)[O-])ccc2C)cc1 | 3.21 µM (inactive) |
| c1coc(CN2CCN(C3CCCCC3)CC2)c1 | 12.2 µM |
| C=CCN1C(=O)C(=O)c2cc(Br)ccc21 | 5.89 µM |
| CC1CCCN(C(=O)COc2ccc(Cl)cc2)C1 (stereo unspecified) | 1.26 µM |
| CN1CCN(c2ccc([N+](=O)[O-])c(N3CCCCC3)c2)CC1 | 10.1 µM |
| COc1cc(CN2CCN(Cc3ccc([N+](=O)[O-])cc3)CC2)cc(OC)c1 | 3.78 µM |
| CC1(C)CC(NC(=O)Cc2ccccc2[N+](=O)[O-])CC(C)(C)N1 | 10.3 µM (inactive) |

| SMILES | EC50 |
| --- | --- |
| Cc1cc(OCCN2CCN(C)CC2)ccc1C(C)C | 2.56 µM |
| O=[N+]([O-])c1ccc(CN2CCN(Cc3cc(Br)ccc3O)CC2)cc1 | 2.47 µM |
| O=C(Nc1ccc(Cc2ccncc2)cc1)c1ccc([N+](=O)[O-])cc1Cl | 1.21 µM (inactive) |
| Cc1ccc(C)c(N2CCN(CC3CC4C=CC3C4)CC2)c1 (stereo unspecified) | 30.4 µM |
| Brc1ccc2ncnc(N3CCN(Cc4ccccc4)CC3)c2c1 | 2.02 µM |
| O=C(Nc1ccc(Cc2ccncc2)cc1)c1cc(Br)ccc1Cl | 2.29 µM (inactive) |
| Cc1ccc(OCCCCN2CCCC2)cc1C | 5.2 µM |
| CCCCOc1ccc(CN2CCN(c3ccc([N+](=O)[O-])cc3)CC2)cc1 | 2.7 µM |
| Cc1ccc(C(=O)c2ccc(N3CCN(C)CC3)c(F)c2)cc1C | 13.4 µM (inactive) |
| CCN1CCN(C(=O)c2ccc(C(C)(C)C)cc2)CC1 | 1.4 µM |
| Cc1ccc(C(=O)NC(C)C2CC3CCC2C3)s1 (stereo unspecified) | 15.3 µM (inactive) |
| Cc1cc(Br)ccc1OCCCN1CCN(C)CC1 | 2.18 µM |
| Cc1cc(C)c(S(=O)(=O)NCCCN2CCOCC2)cc1Br | 0.769 µM |
| CCN(Cc1ccccc1)C(=O)C1CCN(Cc2ccccc2F)CC1 | 1.32 µM |
| Clc1ccc(CN2CCCCCC2)cc1 | 2.05 µM |
| C1=CC2CC1CC2CN1CCN(C2CCC(c3ccccc3)CC2)CC1 (stereo unspecified) | 1.46 µM |
| O=C(Nc1ccc(S(=O)(=O)N2CCCC2)cc1)c1ccc(Cl)cc1Cl | 2.32 µM (inactive) |
| CCC(C)c1ccc(OCCN2CCCC2)cc1 (stereo unspecified) | 5.17 µM |
| Cc1ccc(CN2CCN(c3ccc(F)cc3)CC2)cc1 | 0.00439 µM |
| CCOc1ccc(CN2CCN(c3ccccc3C)CC2)cc1 | 1.3 µM |
| CC(C)=CCC[C@H](C)CCN1CCN(C)CC1 | 10 µM |
| COc1ccccc1N1CCN(C2CCN(Cc3cccc(C)c3)CC2)CC1 | 10.4 µM |

— PubChem BioAssay AID1159536 (DiRusso Lab, Biochemistry Department, University of Nebraska, 2015)
